Measured values taken from the supplement of paper PMC10307832.

Key:
Assay in all cases: relative viability (nuclei count vs DMSO), 5 days (fraction); higher = more cells survive
NCI-H3122 = tested on: NCI-H3122
Method in brief: (§1)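 Cells from lung cancer lines were seeded into 1536-well plates and, one day later, dosed by pin tool. Treatments were either a single drug or a fixed dose of an anchor drug with five library-drug doses (not always all listed) in √10 steps. After 5 days, nuclei were stained in a one-step fixation (final 0.05% Triton X-100, 1% formaldehyde, 1 ug/ml Hoechst) and counted on 4× images, and relative viability is the treated-to-vehicle nuclei ratio, as the median of duplicate plates.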

NCI-H441 = tested on: NCI-H441
Method in brief: as §1

NCI-H661 = tested on: NCI-H661
Method in brief: as §1

HCC-366 = tested on: HCC-366
Method in brief: as §1

NCI-H1650 = tested on: NCI-H1650
Method in brief: as §1

201T = tested on: 201T
Method in brief: as §1

LOU-NH91 = tested on: LOU-NH91
Method in brief: as §1

LK-2 = tested on: LK-2
Method in brief: as §1

NCI-H1666 = tested on: NCI-H1666
Method in brief: as §1

NCI-H460 = tested on: NCI-H460
Method in brief: as §1

ABC-1 = tested on: ABC-1
Method in brief: as §1

`COc1cc2nccc(Oc3ccc(NC(=O)Nc4cc(C)on4)c(Cl)c3)c2cc1OC` [Tivozanib] + COc1cc2c(Oc3ccc(NC(=O)C4(C(=O)Nc5ccc(F)cc5)CC4)cc3F)ccnc2cc1OCCCN1CCOCC1 [Foretinib] (partner 0.25 µM) was tested, and the relative viability (NCI-H3122; first compound 0.005 µM) was 0.913, the relative viability (NCI-H3122; first compound 0.01581 µM) was 0.962 and the relative viability (NCI-H3122; first compound 0.05 µM) was 0.92. The relative viability (NCI-H3122; first compound 0.1581 µM) was 1.05, the relative viability (NCI-H3122; first compound 0.5 µM) was 0.953 and the relative viability (NCI-H441; first compound 0.005 µM) was 0.838. It also gave a relative viability (NCI-H441; first compound 0.01581 µM) of 0.893, a relative viability (NCI-H441; first compound 0.05 µM) of 1.12 and a relative viability (NCI-H441; first compound 0.1581 µM) of 1.11. The relative viability (NCI-H441; first compound 0.5 µM) was 0.934, the relative viability (NCI-H661; first compound 0.005 µM) was 1 and the relative viability (NCI-H661; first compound 0.01581 µM) was 0.997. The relative viability (NCI-H661; first compound 0.05 µM) was 1.03, the relative viability (NCI-H661; first compound 0.1581 µM) was 0.806 and the relative viability (NCI-H661; first compound 0.5 µM) was 0.987. It also gave a relative viability (HCC-366; first compound 0.005 µM) of 0.934, a relative viability (HCC-366; first compound 0.01581 µM) of 0.932 and a relative viability (HCC-366; first compound 0.05 µM) of 0.9. The relative viability (HCC-366; first compound 0.1581 µM) was 0.969, the relative viability (HCC-366; first compound 0.5 µM) was 0.861 and the relative viability (NCI-H1650; first compound 0.005 µM) was 0.955. For the same compound, the relative viability (NCI-H1650; first compound 0.01581 µM) was 1.18, the relative viability (NCI-H1650; first compound 0.05 µM) was 1.15 and the relative viability (NCI-H1650; first compound 0.1581 µM) was 0.935. It also gave a relative viability (NCI-H1650; first compound 0.5 µM) of 1.08, a relative viability (201T; first compound 0.005 µM) of 1.14 and a relative viability (201T; first compound 0.01581 µM) of 1.15. For the same compound, the relative viability (201T; first compound 0.05 µM) was 1.08, the relative viability (201T; first compound 0.1581 µM) was 1.08 and the relative viability (201T; first compound 0.5 µM) was 1.16. The relative viability (LOU-NH91; first compound 0.005 µM) was 0.874, the relative viability (LOU-NH91; first compound 0.01581 µM) was 0.974 and the relative viability (LOU-NH91; first compound 0.05 µM) was 0.993. It also gave a relative viability (LOU-NH91; first compound 0.1581 µM) of 0.982, a relative viability (LOU-NH91; first compound 0.5 µM) of 0.962 and a relative viability (LK-2; first compound 0.005 µM) of 1.36. It also gave a relative viability (LK-2; first compound 0.01581 µM) of 1.09, a relative viability (LK-2; first compound 0.05 µM) of 1.18 and a relative viability (LK-2; first compound 0.1581 µM) of 1.1. It also gave a relative viability (LK-2; first compound 0.5 µM) of 1.02, a relative viability (NCI-H1666; first compound 0.005 µM) of 0.973 and a relative viability (NCI-H1666; first compound 0.01581 µM) of 0.971. It also gave a relative viability (NCI-H1666; first compound 0.05 µM) of 1.04, a relative viability (NCI-H1666; first compound 0.1581 µM) of 0.963 and a relative viability (NCI-H1666; first compound 0.5 µM) of 0.999. The relative viability (NCI-H460; first compound 0.005 µM) was 0.983, the relative viability (NCI-H460; first compound 0.01581 µM) was 0.948 and the relative viability (NCI-H460; first compound 0.05 µM) was 0.972. The relative viability (NCI-H460; first compound 0.1581 µM) was 1.01, the relative viability (NCI-H460; first compound 0.5 µM) was 0.96 and the relative viability (ABC-1; first compound 0.005 µM) was 1.01. The relative viability (ABC-1; first compound 0.01581 µM) was 1.21, the relative viability (ABC-1; first compound 0.05 µM) was 1 and the relative viability (ABC-1; first compound 0.1581 µM) was 1.06. For the same compound, the relative viability (ABC-1; first compound 0.5 µM) was 1.02.
